PMC7026418, “The kinase polypharmacology landscape of clinical PARP inhibitors” (Scientific Reports, 2020)
Read-outs that look alike come from different tables or passages of the source. Blank lines part the entries; values can stand above or below the compound they belong to.

Legend:
Assay in all cases: biochemical
Design in all cases: DiscoveRx KINOMEscan active site-directed competition binding; percent of control kinase bound to immobilised ligand
SIK = biological target: T1, SIK (Homo sapiens, UniProt P57059)
T1 construct: gene SIK1
T1 sequence (P57059 whole entry): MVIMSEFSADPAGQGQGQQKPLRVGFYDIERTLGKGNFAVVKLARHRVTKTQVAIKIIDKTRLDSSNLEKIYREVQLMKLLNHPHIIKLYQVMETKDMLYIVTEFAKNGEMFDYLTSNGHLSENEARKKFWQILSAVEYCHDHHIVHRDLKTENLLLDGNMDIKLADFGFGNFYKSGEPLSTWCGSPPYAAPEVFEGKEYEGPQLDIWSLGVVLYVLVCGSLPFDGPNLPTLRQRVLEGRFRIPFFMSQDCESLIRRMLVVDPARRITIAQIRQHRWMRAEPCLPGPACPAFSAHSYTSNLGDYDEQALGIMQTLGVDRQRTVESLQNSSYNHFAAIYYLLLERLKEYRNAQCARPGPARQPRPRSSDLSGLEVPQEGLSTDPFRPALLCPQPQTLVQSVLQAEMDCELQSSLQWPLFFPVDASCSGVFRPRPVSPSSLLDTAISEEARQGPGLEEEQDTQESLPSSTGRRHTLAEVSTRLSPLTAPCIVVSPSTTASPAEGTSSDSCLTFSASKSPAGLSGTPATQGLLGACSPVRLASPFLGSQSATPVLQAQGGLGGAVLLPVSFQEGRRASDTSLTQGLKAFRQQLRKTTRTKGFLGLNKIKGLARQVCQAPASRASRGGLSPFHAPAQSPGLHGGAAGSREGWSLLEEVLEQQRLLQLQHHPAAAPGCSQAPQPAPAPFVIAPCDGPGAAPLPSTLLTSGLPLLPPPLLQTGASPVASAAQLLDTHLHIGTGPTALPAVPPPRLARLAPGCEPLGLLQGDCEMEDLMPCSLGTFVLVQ

NLK = biological target: T2, NLK (Homo sapiens, UniProt Q9UBE8)
T2 sequence (Q9UBE8 1-527): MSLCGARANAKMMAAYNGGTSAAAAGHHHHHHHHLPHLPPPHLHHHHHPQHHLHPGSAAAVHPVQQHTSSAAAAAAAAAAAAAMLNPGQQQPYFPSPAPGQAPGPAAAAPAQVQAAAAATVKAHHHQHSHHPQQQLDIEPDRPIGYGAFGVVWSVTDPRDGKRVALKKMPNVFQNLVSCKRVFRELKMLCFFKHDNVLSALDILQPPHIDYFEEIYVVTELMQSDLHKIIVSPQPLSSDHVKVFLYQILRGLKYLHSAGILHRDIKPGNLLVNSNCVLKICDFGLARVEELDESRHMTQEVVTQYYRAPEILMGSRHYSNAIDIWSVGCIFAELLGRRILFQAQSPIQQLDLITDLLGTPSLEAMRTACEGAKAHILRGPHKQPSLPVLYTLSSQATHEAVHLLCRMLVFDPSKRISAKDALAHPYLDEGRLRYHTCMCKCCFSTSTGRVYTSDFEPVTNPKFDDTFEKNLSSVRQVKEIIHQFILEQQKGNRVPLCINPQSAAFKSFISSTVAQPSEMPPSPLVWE

PIK3CA(H1047L) = PIK3CA(H1047L) (Homo sapiens, UniProt P42336, H1047L)
PIK3CA(H1047L), sequence (P42336 whole entry H1047L): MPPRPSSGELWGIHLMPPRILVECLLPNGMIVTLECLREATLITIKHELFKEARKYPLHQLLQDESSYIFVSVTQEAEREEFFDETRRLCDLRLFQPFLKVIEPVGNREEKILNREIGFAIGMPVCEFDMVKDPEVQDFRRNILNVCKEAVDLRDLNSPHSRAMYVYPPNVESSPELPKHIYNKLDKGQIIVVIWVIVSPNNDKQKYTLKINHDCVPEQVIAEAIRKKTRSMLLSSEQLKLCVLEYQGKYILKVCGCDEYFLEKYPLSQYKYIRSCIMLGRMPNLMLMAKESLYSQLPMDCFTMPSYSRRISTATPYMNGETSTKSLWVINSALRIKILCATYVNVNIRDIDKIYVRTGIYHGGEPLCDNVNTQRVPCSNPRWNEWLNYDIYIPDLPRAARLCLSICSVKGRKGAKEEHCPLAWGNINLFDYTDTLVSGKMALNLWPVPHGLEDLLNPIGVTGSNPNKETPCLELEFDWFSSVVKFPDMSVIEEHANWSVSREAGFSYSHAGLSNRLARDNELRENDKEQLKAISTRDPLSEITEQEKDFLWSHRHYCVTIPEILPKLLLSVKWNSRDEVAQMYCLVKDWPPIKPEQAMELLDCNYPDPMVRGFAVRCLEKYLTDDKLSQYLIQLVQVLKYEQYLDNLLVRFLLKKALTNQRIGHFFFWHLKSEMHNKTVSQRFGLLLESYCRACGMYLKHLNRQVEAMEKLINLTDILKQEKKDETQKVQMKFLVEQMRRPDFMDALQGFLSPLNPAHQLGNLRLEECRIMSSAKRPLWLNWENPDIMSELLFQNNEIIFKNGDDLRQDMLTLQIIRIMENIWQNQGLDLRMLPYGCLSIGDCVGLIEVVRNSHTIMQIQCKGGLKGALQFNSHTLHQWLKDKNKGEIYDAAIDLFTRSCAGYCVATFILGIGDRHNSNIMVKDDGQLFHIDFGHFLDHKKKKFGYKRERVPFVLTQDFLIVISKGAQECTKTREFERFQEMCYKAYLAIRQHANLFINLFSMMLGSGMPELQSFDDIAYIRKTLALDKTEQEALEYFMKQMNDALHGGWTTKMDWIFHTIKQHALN

TAOK2 = biological target: T3, TAOK2 (Homo sapiens, UniProt Q9UL54)
T3 sequence (Q9UL54 1-1235): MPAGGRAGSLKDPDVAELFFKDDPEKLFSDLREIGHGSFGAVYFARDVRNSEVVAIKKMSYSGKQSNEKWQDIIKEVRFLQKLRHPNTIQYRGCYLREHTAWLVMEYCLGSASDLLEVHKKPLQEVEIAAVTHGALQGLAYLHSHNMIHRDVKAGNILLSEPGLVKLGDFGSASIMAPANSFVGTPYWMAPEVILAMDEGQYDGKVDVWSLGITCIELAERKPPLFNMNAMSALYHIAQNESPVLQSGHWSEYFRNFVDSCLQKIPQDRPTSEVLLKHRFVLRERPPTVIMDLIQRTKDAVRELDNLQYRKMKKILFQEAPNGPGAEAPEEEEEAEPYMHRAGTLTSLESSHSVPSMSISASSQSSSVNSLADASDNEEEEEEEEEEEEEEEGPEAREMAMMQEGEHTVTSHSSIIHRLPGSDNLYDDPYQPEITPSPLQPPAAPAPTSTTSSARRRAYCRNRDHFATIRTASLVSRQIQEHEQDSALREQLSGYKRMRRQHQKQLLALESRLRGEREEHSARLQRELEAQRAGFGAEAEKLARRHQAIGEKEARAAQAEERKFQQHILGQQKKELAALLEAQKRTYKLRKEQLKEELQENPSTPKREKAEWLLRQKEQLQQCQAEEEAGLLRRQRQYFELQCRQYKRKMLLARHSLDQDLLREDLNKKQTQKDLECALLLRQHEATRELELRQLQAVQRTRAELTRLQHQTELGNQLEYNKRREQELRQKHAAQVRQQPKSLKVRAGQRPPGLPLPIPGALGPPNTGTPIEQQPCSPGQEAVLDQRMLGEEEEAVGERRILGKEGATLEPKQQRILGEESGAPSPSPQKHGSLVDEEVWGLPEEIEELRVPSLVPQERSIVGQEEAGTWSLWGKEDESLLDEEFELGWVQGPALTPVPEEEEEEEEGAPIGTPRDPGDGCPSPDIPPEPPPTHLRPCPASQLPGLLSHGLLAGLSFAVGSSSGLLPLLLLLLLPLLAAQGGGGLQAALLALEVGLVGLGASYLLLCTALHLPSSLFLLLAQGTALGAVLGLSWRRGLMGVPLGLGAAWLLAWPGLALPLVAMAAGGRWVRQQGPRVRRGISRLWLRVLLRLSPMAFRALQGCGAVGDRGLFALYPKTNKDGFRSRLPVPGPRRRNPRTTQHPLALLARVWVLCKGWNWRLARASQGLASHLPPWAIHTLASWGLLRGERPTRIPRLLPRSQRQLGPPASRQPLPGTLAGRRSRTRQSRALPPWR

STK35 = STK35 (Homo sapiens, UniProt Q8TDR2)
STK35, sequence (Q8TDR2 whole entry): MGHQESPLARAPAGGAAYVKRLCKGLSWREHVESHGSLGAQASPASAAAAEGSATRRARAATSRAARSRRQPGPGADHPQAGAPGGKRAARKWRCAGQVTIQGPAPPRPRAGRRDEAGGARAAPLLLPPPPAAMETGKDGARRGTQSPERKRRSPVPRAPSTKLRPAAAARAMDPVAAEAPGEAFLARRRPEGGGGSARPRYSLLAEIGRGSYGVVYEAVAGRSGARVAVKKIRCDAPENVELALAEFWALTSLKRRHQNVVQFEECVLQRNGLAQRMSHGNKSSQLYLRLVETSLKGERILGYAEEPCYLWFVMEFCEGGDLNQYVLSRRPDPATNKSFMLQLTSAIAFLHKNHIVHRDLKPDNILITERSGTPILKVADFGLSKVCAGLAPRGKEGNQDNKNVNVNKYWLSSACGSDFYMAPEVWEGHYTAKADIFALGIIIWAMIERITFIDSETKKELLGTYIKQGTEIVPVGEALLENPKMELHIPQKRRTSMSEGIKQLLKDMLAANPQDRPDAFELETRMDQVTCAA

VPS34 = biological target: T4, VPS34 (Homo sapiens, UniProt Q8NEB9)
T4 construct: gene PIK3C3
T4 sequence (Q8NEB9 whole entry): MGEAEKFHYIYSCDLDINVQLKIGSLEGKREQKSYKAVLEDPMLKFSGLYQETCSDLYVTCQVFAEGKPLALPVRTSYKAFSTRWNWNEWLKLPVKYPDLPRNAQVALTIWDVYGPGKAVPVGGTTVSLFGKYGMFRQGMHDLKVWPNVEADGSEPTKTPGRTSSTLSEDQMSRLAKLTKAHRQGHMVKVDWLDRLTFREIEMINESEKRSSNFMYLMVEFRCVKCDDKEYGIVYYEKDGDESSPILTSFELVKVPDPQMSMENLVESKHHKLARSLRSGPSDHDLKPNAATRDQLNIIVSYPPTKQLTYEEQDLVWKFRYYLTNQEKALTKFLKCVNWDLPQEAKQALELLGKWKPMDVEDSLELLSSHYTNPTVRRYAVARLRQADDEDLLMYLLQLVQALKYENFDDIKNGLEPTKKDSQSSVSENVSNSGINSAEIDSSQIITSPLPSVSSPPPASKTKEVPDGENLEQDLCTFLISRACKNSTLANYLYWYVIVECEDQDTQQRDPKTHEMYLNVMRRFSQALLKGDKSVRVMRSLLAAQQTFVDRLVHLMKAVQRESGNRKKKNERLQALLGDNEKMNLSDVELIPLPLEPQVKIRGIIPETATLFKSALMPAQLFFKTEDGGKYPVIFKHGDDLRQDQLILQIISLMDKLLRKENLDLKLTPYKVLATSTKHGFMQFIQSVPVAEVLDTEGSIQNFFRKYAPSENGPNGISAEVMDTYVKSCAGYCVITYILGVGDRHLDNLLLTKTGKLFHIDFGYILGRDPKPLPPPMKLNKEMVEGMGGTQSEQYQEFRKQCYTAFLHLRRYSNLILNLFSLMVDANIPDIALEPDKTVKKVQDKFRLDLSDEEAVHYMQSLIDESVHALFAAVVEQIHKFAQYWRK

[1] = read-out: Niraparib (MK-4827) / %Ctrl @ 10000nM
[2] = read-out: Rucaparib / %Ctrl @ 10000nM, binding competition, % of control
[3] = read-out: Olaparib / %Ctrl @ 10000nM
[4] = read-out: Talazoparib (BMN 673) / %Ctrl @ 10000nM

SMILES: NC(=O)c1cccc2cn(-c3ccc([C@@H]4CCCNC4)cc3)nc12 [Niraparib]
percent of control binding at 10 µM (SIK; [1]): 93%
percent of control binding at 10 µM (NLK; [1]): 100%
percent of control binding at 10 µM (PIK3CA(H1047L); [1]): 100%
percent of control binding at 10 µM (TAOK2; [1]): 100%
percent of control binding at 10 µM (STK35; [1]): 92%
percent of control binding at 10 µM (VPS34; [1]): 14%

percent of control binding at 10 µM (SIK; [2]): 87%
percent of control binding at 10 µM (NLK; [2]): 78%
percent of control binding at 10 µM (PIK3CA(H1047L); [2]): 87%
percent of control binding at 10 µM (TAOK2; [2]): 71%
percent of control binding at 10 µM (STK35; [2]): 92%
percent of control binding at 10 µM (VPS34; [2]): 80%
SMILES: CNCc1ccc(-c2[nH]c3cc(F)cc4c3c2CCNC4=O)cc1 [Rucaparib]

percent of control binding at 10 µM (SIK; [3]): 95%
percent of control binding at 10 µM (NLK; [3]): 85%
percent of control binding at 10 µM (PIK3CA(H1047L); [3]): 87%
percent of control binding at 10 µM (TAOK2; [3]): 93%
percent of control binding at 10 µM (STK35; [3]): 100%
percent of control binding at 10 µM (VPS34; [3]): 90%
SMILES: O=C(c1cc(Cc2n[nH]c(=O)c3ccccc23)ccc1F)N1CCN(C(=O)C2CC2)CC1 [Olaparib]

percent of control binding at 10 µM (SIK; [4]): 78%
percent of control binding at 10 µM (NLK; [4]): 100%
percent of control binding at 10 µM (PIK3CA(H1047L); [4]): 100%
percent of control binding at 10 µM (TAOK2; [4]): 100%
percent of control binding at 10 µM (STK35; [4]): 100%
percent of control binding at 10 µM (VPS34; [4]): 100%
SMILES: Cn1ncnc1[C@H]1c2n[nH]c(=O)c3cc(F)cc(c23)N[C@@H]1c1ccc(F)cc1 [Talazoparib]
